Source: US11076595B2, “1-(n,n-disubstituted carbamoyl) 4-(substituted sulfonyl)triazolin-5-one derivative, 4-(n,n-disubstituted carbamoyl) 1-(substituted sulfonyl)triazolin-5-one derivative, and herbicide containing said derivative as active ingredient” (HOKKO CHEMICAL INDUSTRY CO., LTD., priority 2017, dated 2021)

Legend:
Type in all cases: in vivo
Scirpus juncoides [1] = experiment: Test Example 12: herbicidal effect test by treatment during growing period in paddy field; conditions: 120 g/10a; treatment seven days after sowing in flooded paddy pot; assessed 14 days after treatment
Procedure, shortened: (§1)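 Puddled paddy soil in Wagner pots, 30 seeds per species sown 0-1 cm deep, flooded to about 3 cm in a greenhouse. Seven days after sowing, water-diluted emulsifiable concentrate was dripped in at 120 g active ingredient per 10 are. Suppression (%) from dry weight versus untreated at 14 days, two replicates.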

Lindernia pyxidaria [2] = experiment: as above; conditions: 120 g/10a; treatment seven days after sowing in flooded paddy pot; assessed 14 days after treatment
Procedure, shortened: as §1

Monochoria vaginalis [3] = experiment: as above; conditions: 120 g/10a; treatment seven days after sowing in flooded paddy pot; assessed 14 days after treatment
Procedure, shortened: as §1

Echinochloa crus-galli [4] = experiment: as above; conditions: 120 g/10a; treatment seven days after sowing in flooded paddy pot; assessed 14 days after treatment
Procedure, shortened: as §1

Scirpus juncoides [5] = experiment: Test Example 11: herbicidal effect test by soil treatment in paddy field; conditions: 120 g/10a active ingredient, 14 days after treatment
Procedure, shortened: (§2)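 Seeds were sown 0-1 cm deep in puddled, fertilised paddy soil in Wagner pots and kept under about 3 cm of flooding in a greenhouse. Diluted emulsifiable concentrate was added dropwise right after sowing at 120 g a.i. per 10 are. Suppression (%) came from dry weight versus untreated pots after 14 days, two replicates.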

Lindernia pyxidaria [6] = experiment: as above; conditions: 120 g/10a active ingredient, 14 days after treatment
Procedure, shortened: as §2

Monochoria vaginalis [7] = experiment: as above; conditions: 120 g/10a active ingredient, 14 days after treatment
Procedure, shortened: as §2

Echinochloa crus-galli [8] = experiment: as above; conditions: 120 g/10a active ingredient, 14 days after treatment
Procedure, shortened: as §2

Amaranthus viridis = experiment: Test Example 14: herbicidal effect test by foliage treatment in upland field; conditions: 7 days after sowing, 120 g/10a, 14 days after treatment
Method: (§3) This test was performed with two replications per one formulation concentration plot, and 14 days after the formulation treatments, the weed suppression rate (%) was determined according to the following equation (Math. 2). Weed suppression rate (%)=(1−average dry weight (g) of plants in treated plots/average dry weight (g) of plants in untreated plots)×100 [Math. 2]
(§4) A pot having a size of 36 cm^2 was filled with field soil (alluvial soil) and after uniformly mixing the soil of the surface layer of 1 cm with 20 grains of each weed seed of crabgrass, Echinochloa crus-galli, Chenopodium album and Amaranthus viridis, the surface layer was pressed lightly. Seven Days after the sowing, an emulsifiable concentrate prepared according to Formulation Example 15 by using the compound shown in Table 12 below was diluted with water, and the water-diluted formulation was sprayed on the soil surface at a ratio of 100 liter per 10 are. The application rate of the active ingredient, by conversion, corresponded to 120 g per 10 are. Fourteen Days after the formulation treatment, the herbicidal effect was evaluated by the same criteria as in Test Example 11.

Echinochloa crus-galli [9] = experiment: as above; conditions: 7 days after sowing, 120 g/10a, 14 days after treatment
Method: as §3, §4

Chenopodium album = experiment: as above; conditions: 7 days after sowing, 120 g/10a, 14 days after treatment
Method: as §4

crabgrass = experiment: as above; conditions: 7 days after sowing, 120 g/10a, 14 days after treatment
Method: as §4

Compound	Weed suppression rate (%) Scirpus juncoides (Scirpus juncoides [1]) [%]	Weed suppression rate (%) Lindemia pyxidaria (Lindernia pyxidaria [2]) [%]	Weed suppression rate (%) Monochoria vaginalis (Monochoria vaginalis [3]) [%]	Weed suppression rate (%) Echinochloa crus-galli (Echinochloa crus-galli [4]) [%]	Weed suppression rate (%) Scirpus juncoides (Scirpus juncoides [5]) [%]	Weed suppression rate (%) Lindemia pyxidaria (Lindernia pyxidaria [6]) [%]	Weed suppression rate (%) Monochoria vaginalis (Monochoria vaginalis [7]) [%]	Weed suppression rate (%) Echinochloa crus-galli (Echinochloa crus-galli [8]) [%]	herbicidal effect, Amaranthus viridis (Amaranthus viridis) [%]	herbicidal effect, Echinochloa crus-galli (Echinochloa crus-galli [9]) [%]	herbicidal effect, Chenopodium album (Chenopodium album) [%]	herbicidal effect, Crabgrass (crabgrass) [%]
CC(C)N(C(=O)n1cnn(S(=O)(=O)c2ccccc2F)c1=O)c1ccccc1 [Compound 11-391]	80	80	80	90	80	80	60	90	40	60	40	90
Cc1cc(Cl)ccc1N(C(=O)n1cnn(S(=O)(=O)C2CC2)c1=O)C(C)C [Compound 11-213]	90	80	80	90	90	90	60	100	90	80	80	90
CC(C)N(C(=O)n1cnn(S(=O)(=O)C2CCCCC2)c1=O)c1c(F)c(F)cc(F)c1F [Compound 11-299]	100	80	100	100	100	100	70	100	60	100	60	100
CC(C)N(C(=O)n1cnn(S(=O)(=O)C2CC2)c1=O)c1ccc(C(F)(F)F)cc1F [Compound 11-217]	80	80	90	100	80	100	100	100	60	100	70	100
CC(C)N(C(=O)n1cnn(S(=O)(=O)N(C)C)c1=O)c1ccc(Cl)cc1F [Compound 11-1072]	90	90	60	100	90	80	80	90	90	80	80	90
CCS(=O)(=O)n1ncn(C(=O)N(c2ccc(F)c(F)c2F)C(C)C)c1=O [Compound 11-1152]	100	100	100	100	100	100	100	100	90	100	80	100
CCN(CC)S(=O)(=O)n1ncn(C(=O)N(c2ccc(F)cc2F)C(C)C)c1=O [Compound 11-1099]	–	–	–	–	–	–	–	–	90	80	80	90
CC(C)N(C(=O)n1cnn(S(=O)(=O)C2CCCCC2)c1=O)c1ccc(C(F)(F)F)cc1F [Compound 11-311]	–	–	–	–	–	–	–	–	60	90	30	100
CC(C)N(C(=O)n1cnn(S(C)(=O)=O)c1=O)c1ccc(Cl)cc1F [Compound 11-20]	60	40	60	70	80	40	40	70	–	–	–	–
Cc1ccc(S(=O)(=O)n2ncn(C(=O)N(C)c3ccc(F)cc3F)c2=O)cc1 [Compound 11-1131]	80	70	90	100	100	100	70	100	–	–	–	–
Cc1cc(C)c(S(=O)(=O)n2ncn(C(=O)N(c3cccc(F)c3)C(C)C)c2=O)c(C)c1 [Compound 11-854]	80	90	90	80	90	90	80	100	–	–	–	–
CC(C)N(C(=O)n1cnn(S(=O)(=O)N(C)C)c1=O)c1ccc(Cl)cc1Br [Compound 11-1076]	60	60	30	90	60	60	60	90	–	–	–	–
COc1ccc(S(=O)(=O)n2ncn(C(=O)N(c3c(F)cccc3F)C(C)C)c2=O)cc1 [Compound 11-1151]	90	80	90	100	80	100	70	100	–	–	–	–
Cc1cc(F)ccc1N(C(=O)n1cnn(S(=O)(=O)C2CCCCC2)c1=O)C(C)C [Compound 11-307]	60	70	60	90	80	70	70	80	–	–	–	–
CC(C)N(C(=O)n1cnn(S(=O)(=O)c2ccc(Cl)cc2)c1=O)c1ccc(F)c(F)c1F [Compound 11-591]	100	70	70	60	60	90	70	100	–	–	–	–
CC(C)N(C(=O)n1cnn(S(=O)(=O)c2cccs2)c1=O)c1ccc(F)cc1 [Compound 11-1014]	90	80	80	90	90	90	80	90	–	–	–	–
CC(C)N(C(=O)n1cnn(S(=O)(=O)c2ccc(F)cc2)c1=O)c1c(F)c(F)cc(F)c1F [Compound 11-480]	100	80	70	100	90	90	80	100	–	–	–	–
